Laboratory results from ChEMBL document CHEMBL1201862, “PubChem BioAssay data set” (2004).
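Exposure lasted 48 hours, with cells grown in 96-well plates and compounds tested at five concentrations. At the GI50, growth is halved.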 The source made the active and inactive calls. Cut-off read from the data, not from the text of the source: active = GI50 up to about 1.1 µM and inactive = higher.

How the values were obtained:
Assay in all cases: inhibition of tumour cell growth, NCI panel, 48 h
[1] = system: UACC-62
[2] = system: CCRF-CEM
[3] = system: K562
[4] = system: SK-MEL-2
[5] = system: COLO 205
[6] = system: MCF7
[7] = system: T47D
[8] = system: HCT-15
[9] = system: HCT-116
[10] = system: ACHN
[11] = system: SW-620
[12] = system: SK-MEL-28
[13] = system: HOP-62
[14] = system: NCI-H226
[15] = system: OVCAR-3
[16] = system: A549
[17] = system: RPMI-8226
[18] = system: SR
[19] = system: NCI-H460
[20] = system: A498

SMILES	GI50 [1]	GI50 [2]	GI50 [3]	GI50 [4]	GI50 [5]	GI50 [6]	GI50 [7]	GI50 [8] [µM]	GI50 [9]	GI50 [10]	GI50 [11]	GI50 [12]	GI50 [13]	GI50 [14]	GI50 [15]	GI50 [16]	GI50 [17]	GI50 [18]	GI50 [19]	GI50 [20]
C[C@]12CC[C@H]3[C@@H](CCC4=C/C(=N/OCCN5CCCCC5)CC[C@@]43C)[C@@H]1CC[C@@H]2O	> 10 µM (inactive)	9.31 µM (inactive)	2.75 µM (inactive)	14.6 µM (inactive)	16.1 µM (inactive)	12 µM (inactive)	28 µM (inactive)	8.04	19.3 µM (inactive)	20.7 µM (inactive)	13.9 µM (inactive)	13.6 µM (inactive)	14.1 µM (inactive)	4.29 µM (inactive)	16.3 µM (inactive)	14.4 µM (inactive)	10.7 µM (inactive)	–	–	–
COc1ccc2[nH]c3c([N+](=O)[O-])ccc(NCCN(C)C)c3/c(=N/CCN(C)C)c2c1	7.23 µM (inactive)	0.237 µM (active)	1.22 µM (inactive)	–	2.01 µM (inactive)	0.453 µM (active)	> 10 µM (inactive)	1.31	–	–	1.04 µM (active)	2.26 µM (inactive)	0.695 µM (active)	–	–	1.66 µM (inactive)	0.421 µM (active)	0.117 µM (active)	–	–
C[C@@H](c1ccccc1)n1c(N)c(-c2ccccn2)c2ccc([N+](=O)[O-])cc2c1=O	> 100 µM (inactive)	32.1 µM (inactive)	–	> 100 µM (inactive)	38.2 µM (inactive)	–	43.2 µM (inactive)	86.1	79.4 µM (inactive)	56.9 µM (inactive)	> 100 µM (inactive)	> 100 µM (inactive)	–	36.6 µM (inactive)	–	34.9 µM (inactive)	–	32.6 µM (inactive)	43.1 µM (inactive)	18.5 µM (inactive)
CC12CCCCC1=[N+]([O-])C(C)(C)N2O (stereo not drawn)	> 100 µM (inactive)	> 100 µM (inactive)	> 10 µM (inactive)	> 100 µM (inactive)	> 100 µM (inactive)	> 100 µM (inactive)	> 100 µM (inactive)	> 100	> 100 µM (inactive)	> 100 µM (inactive)	> 100 µM (inactive)	> 100 µM (inactive)	> 100 µM (inactive)	> 100 µM (inactive)	> 100 µM (inactive)	> 100 µM (inactive)	> 100 µM (inactive)	> 100 µM (inactive)	> 100 µM (inactive)	–
c1ccc2c(c1)N[C@@H]1c3[nH]c4ccccc4c3CC[C@H]21	17.6 µM (inactive)	15 µM (inactive)	14 µM (inactive)	13.9 µM (inactive)	14.7 µM (inactive)	–	16.7 µM (inactive)	23	14.7 µM (inactive)	21.4 µM (inactive)	17.7 µM (inactive)	18.5 µM (inactive)	13.3 µM (inactive)	12.5 µM (inactive)	13.9 µM (inactive)	18.3 µM (inactive)	14.7 µM (inactive)	–	16.8 µM (inactive)	16.7 µM (inactive)
CCCCCCCCCCCCC/C=C/[C@@H](O)[C@H](COC1OC(CO)C(OC2OC(CO)C(O)C(OC3(C(=O)O)CC(O)C(NC(C)=O)C(C(O)C(O)CO)O3)C2O)C(O)C1O)N=[N+]=[N-] (stereo partly drawn)	15.8 µM (inactive)	22.5 µM (inactive)	27.4 µM (inactive)	17.5 µM (inactive)	17.8 µM (inactive)	> 100 µM (inactive)	48.5 µM (inactive)	72.9	70.1 µM (inactive)	> 100 µM (inactive)	26.7 µM (inactive)	30.3 µM (inactive)	20.5 µM (inactive)	20.8 µM (inactive)	> 100 µM (inactive)	> 100 µM (inactive)	95.3 µM (inactive)	–	36.9 µM (inactive)	47.2 µM (inactive)
CC1OC(O[C@H]2C3C=CO[C@@H](OC4OC(CO)C(O)C(O)C4O)C3[C@@]3(COC(=O)/C=C/c4ccc(O)cc4)O[C@@H]23)C(O)C(O)C1O (stereo partly drawn)	> 100 µM (inactive)	–	> 100 µM (inactive)	> 100 µM (inactive)	> 100 µM (inactive)	> 100 µM (inactive)	> 100 µM (inactive)	> 100	> 100 µM (inactive)	> 100 µM (inactive)	> 100 µM (inactive)	> 100 µM (inactive)	> 100 µM (inactive)	> 100 µM (inactive)	> 100 µM (inactive)	> 100 µM (inactive)	> 100 µM (inactive)	–	> 100 µM (inactive)	> 100 µM (inactive)
COc1ccc2c(c1)/C(=C\c1c(Cl)nc3n1CCS3)C(=O)N2	4 µM (inactive)	6.31 µM (inactive)	3.02 µM (inactive)	–	3.14 µM (inactive)	4.42 µM (inactive)	5.16 µM (inactive)	3.84	3.73 µM (inactive)	11 µM (inactive)	4.94 µM (inactive)	18.7 µM (inactive)	6.35 µM (inactive)	–	2.77 µM (inactive)	5.62 µM (inactive)	4.03 µM (inactive)	–	3.71 µM (inactive)	4.89 µM (inactive)
Cc1cc2c(c3oc(C4(C)OC4C4OC4C)cc(=O)c13)C(=O)c1c(O)c(C3CC(C)(N(C)C)C(O)C(C)O3)cc(C3CC(N(C)C)C(O)C(C)O3)c1C2=O (stereo not drawn)	6.43e-05 µM (active)	0.0025 µM (active)	0.0025 µM (active)	–	9.53e-05 µM (active)	2.49e-05 µM (active)	0.00018 µM (active)	–	1.54e-05 µM (active)	4.4e-05 µM (active)	0.0025 µM (active)	–	5.79e-05 µM (active)	–	0.000191 µM (active)	0.0025 µM (active)	0.000271 µM (active)	6.17e-05 µM (active)	0.0025 µM (active)	–
CC(=O)/C(=C/c1ccccc1F)C(=O)c1ccccc1	37.2 µM (inactive)	–	–	27.5 µM (inactive)	60.5 µM (inactive)	37.2 µM (inactive)	24.9 µM (inactive)	27.7	27.8 µM (inactive)	35.2 µM (inactive)	20.7 µM (inactive)	53.2 µM (inactive)	35.2 µM (inactive)	76.4 µM (inactive)	18.6 µM (inactive)	57 µM (inactive)	18.3 µM (inactive)	–	25.1 µM (inactive)	> 100 µM (inactive)
NC(=S)N/N=C1\CCCCC1C(O)(C(F)(F)Cl)C(F)(F)Cl (stereo not drawn)	> 10 µM (inactive)	> 10 µM (inactive)	> 10 µM (inactive)	> 10 µM (inactive)	> 10 µM (inactive)	> 10 µM (inactive)	> 10 µM (inactive)	> 10	> 10 µM (inactive)	> 10 µM (inactive)	> 10 µM (inactive)	> 10 µM (inactive)	> 10 µM (inactive)	> 10 µM (inactive)	> 10 µM (inactive)	> 10 µM (inactive)	> 10 µM (inactive)	–	> 10 µM (inactive)	> 10 µM (inactive)
C1CCSCCCCSCCCCSCCCCSC1	> 100 µM (inactive)	–	> 100 µM (inactive)	> 100 µM (inactive)	> 100 µM (inactive)	> 100 µM (inactive)	> 100 µM (inactive)	> 100	> 100 µM (inactive)	> 100 µM (inactive)	> 100 µM (inactive)	> 100 µM (inactive)	> 100 µM (inactive)	> 100 µM (inactive)	> 100 µM (inactive)	> 100 µM (inactive)	> 100 µM (inactive)	–	> 100 µM (inactive)	> 100 µM (inactive)
CCOC(=O)CO/N=C1/C(=C2/C(=O)Nc3ccccc32)Nc2ccccc21	48.6 µM (inactive)	> 100 µM (inactive)	> 100 µM (inactive)	39.6 µM (inactive)	> 100 µM (inactive)	50.1 µM (inactive)	2.29 µM (inactive)	81.7	5.12 µM (inactive)	67 µM (inactive)	34.7 µM (inactive)	> 100 µM (inactive)	8.3 µM (inactive)	–	12.4 µM (inactive)	24.5 µM (inactive)	> 100 µM (inactive)	–	> 100 µM (inactive)	15.1 µM (inactive)
COc1cc(/C=C2/C[C@H]3[C@@H]4CCC5=CC(=O)CC[C@]5(C)[C@H]4CC[C@]3(C)NC2=O)cc(OC)c1OC	23.1 µM (inactive)	20.8 µM (inactive)	–	24.8 µM (inactive)	18.5 µM (inactive)	17.3 µM (inactive)	13 µM (inactive)	21.5	26.2 µM (inactive)	26.4 µM (inactive)	36.7 µM (inactive)	29 µM (inactive)	27.9 µM (inactive)	28.8 µM (inactive)	43.7 µM (inactive)	20.6 µM (inactive)	9.64 µM (inactive)	–	28.4 µM (inactive)	11.6 µM (inactive)
Cc1ccc(Nc2cc(=O)[nH]c(=O)[nH]2)cc1CS	> 100 µM (inactive)	> 100 µM (inactive)	> 100 µM (inactive)	> 100 µM (inactive)	> 100 µM (inactive)	–	> 100 µM (inactive)	> 100	> 100 µM (inactive)	77.4 µM (inactive)	> 100 µM (inactive)	> 100 µM (inactive)	> 100 µM (inactive)	> 100 µM (inactive)	> 100 µM (inactive)	> 100 µM (inactive)	> 100 µM (inactive)	> 100 µM (inactive)	> 100 µM (inactive)	> 100 µM (inactive)
O=[N+]([O-])c1ccc(Cl)cc1N/N=C/c1cccs1	> 100 µM (inactive)	> 100 µM (inactive)	> 100 µM (inactive)	–	> 100 µM (inactive)	9.95 µM (inactive)	26.4 µM (inactive)	> 100	> 100 µM (inactive)	> 100 µM (inactive)	> 100 µM (inactive)	> 100 µM (inactive)	> 100 µM (inactive)	38.5 µM (inactive)	> 100 µM (inactive)	> 100 µM (inactive)	> 100 µM (inactive)	> 100 µM (inactive)	> 100 µM (inactive)	–
